{
  "source": "paper PMC6123649",
  "about": "“Structural basis for specific inhibition of the highly sensitive ShHTL7 receptor” (EMBO Reports, 2018)",
  "key": {"ShHTL7 [1]": {"target": "T1, ShHTL7 (Striga hermonthica, UniProt A0A0M3PNA2)", "T1 sequence (A0A0M3PNA2 1-271)": "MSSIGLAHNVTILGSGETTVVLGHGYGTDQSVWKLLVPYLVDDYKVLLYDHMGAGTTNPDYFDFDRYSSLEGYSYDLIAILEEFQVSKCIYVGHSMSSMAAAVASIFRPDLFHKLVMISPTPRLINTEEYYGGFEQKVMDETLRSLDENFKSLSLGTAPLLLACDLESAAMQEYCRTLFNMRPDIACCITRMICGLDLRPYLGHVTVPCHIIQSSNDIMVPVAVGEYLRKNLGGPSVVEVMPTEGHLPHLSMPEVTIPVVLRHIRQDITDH", "test": "Microscale thermophoresis (MST)", "assay_type": "binding", "experimental": "ShHTL7 was N‐terminally labeled with RED dye (NT‐647) following the protocol from manufacturer (NanoTemper, Germany). Free dye was removed by passing through the Sephadex G‐25 column. Serial dilutions of unlabeled Triton X‐100, GR24, and PAA ranging from 25 μM to sub‐nanomolar range were mixed with 20 nM of NT‐647‐labeled ShHTL7 in buffer (50 mM Tris–HCl, 150 mM NaCl, 0.005% Tween‐20) and incubated for 2.5 h in the studies for Triton X‐100 and PAA except with GR24, and it was recorded after 10‐min incubation. About 10 μl of sample was loaded into premium monolith NT capillaries, and assays were carried out in a NanoTemper Monolith NT.015T. The red fluorescence was excited by a light‐emitting diode, and its emission was recorded on the focused part of capillaries. Using laser diode, a microscopic temperature gradient was created at the same location and the fluorescence depletion was measured. K d values were determined by plotting the concentrations of unlabeled ligands against the changes in fluorescent thermophoresis signal, and the data were analyzed using the NanoTemper analysis software."}, "ShHTL7 [2]": {"target": "T1, ShHTL7", "test": "Differential static light scattering (DSLS), aggregation temperature", "assay_type": "binding", "conditions": "10 μM protein, varying compound concentrations", "experimental": "The specific aggregation temperature, T agg, at which ShHTL7, ShHTL7L143Y, AtD14, and OsD14 aggregated in the presence or absence of Triton X‐100, GR24, and PAA was measured using DSLS on the Stargazer system (Harbinger Biotechnology and Engineering Corporation, Markham, Canada). Protein samples at a concentration of 10 μM were overlaid with mineral oil in a clear bottom 384‐well black plate (Corning) and heated from 20 to 95°C at 1°C/min; light scattering was detected by a CCD camera every 0.5°C in the presence or absence of varying concentrations of Triton X‐100, GR24, and PAA yielding the difference in aggregation temperature at a particular concentration from apoproteins (ΔT agg). Data were normalized, and ΔT agg plotted against the Triton X‐100, GR24, and PAA concentration. Resulting data were plotted to determine the change in T agg of all proteins when bound to Triton X‐100, GR24, and PAA using GraphPad (Prism 6)."}, "Striga hermonthica seeds": {"test_system": "Striga hermonthica seeds", "test": "Striga hermonthica germination bioassay", "assay_type": "in vivo", "conditions": "for effect on GR24-induced Striga germination: n‐dodecyl‐β‐D‐maltoside at 15 and 1.5 µM, same conditions as Triton", "experimental": "Striga hermonthica seeds were collected from Sorghum bicolor field in Sudan. For germination bioassays, Striga seeds were first sterilized and pre‐conditioned as described before 31. […] Triton X‐100/GR24 mixtures were applied (50 μl per disk) in four replicates. Corresponding volumes of GR24 and sterile MiliQ water were included as positive and negative control, respectively. The petri dishes were sealed with parafilm, enfolded with aluminum foil, and incubated for 48 h at 30°C. The germinated (seeds with radicle emerging through the seed coat) and non‐germinated Striga seeds were recorded under a binocular, and germination percentage was calculated."}, "ShHTL7 [3]": {"target": "T1, ShHTL7", "test": "Yoshimulactone Green (YLG) hydrolysis competition assay", "assay_type": "biochemical", "experimental": "In vitro YLG hydrolysis assays were performed using 3 μM of ShHTL7, ShHTL7‐L143Y, AtD14, and OsD14 in a reaction buffer (1× PBS) with 0.1% dimethyl sulfoxide (DMSO) in a 100 μl volume on a 96‐well black plate (Greiner). The fluorescent intensity was measured by SpectraMax i3 (Molecular Devices) using an excitation wavelength of 480 nm and a detection wavelength of 520 nm. […] Protein‐Triton mixes were pre‐incubated for 30 min. 1 μM YLG (Tokyo Chemical Industry Co. Ltd.) was then added, and the assay was incubated for 60 min. The change in fluorescence observed over the course of 1 h incubation of YLG in buffer without protein was subtracted from the data collected in the presence of protein. The resulting relative fluorescence values were analyzed. The inhibitory curves and IC50 values were plotted using GraphPad (Prism 6) four‐parameter logistic curve. The rate of YLG hydrolysis by ShHTL7 was recorded following the above method at 10‐min interval for 2 h."}, "ShHTL7 [4]": {"target": "T1, ShHTL7", "conditions": "cited from earlier work"}, "ShHTL6": {"test_system": "ShHTL6", "set-up": "method as in PMID 26293962, PMID 26450211", "conditions": "recombinant ShHTL6; read-out: IC50 for GR24, in vitro YLG assay; cited from earlier work"}, "ShHTL7 [5]": {"target": "T1, ShHTL7", "test": "Drug affinity response target stability (DARTS) assay", "assay_type": "binding", "conditions": "100 μM compound; proteinase K 10 μg/ml", "experimental": "ShHTL7 and mutants were diluted to a concentration of 30 μM in 50 mM Tris–HCl pH 7.5, 150 mM NaCl, 0.005% Tween‐20, incubated with GR24 at final concentration of 100 μM for 5 min, and separately with 100 μM Triton X‐100 for 2 h. One sample was kept aside for use as an undigested control. Proteinase K (Hampton Research) was then added to ShHTL7 protein to a final protease concentration of 10 μg/ml. Reactions were incubated at room temperature for 5 min and then SDS–PAGE loading buffer was added to stop the reaction, and the samples were immediately boiled for 3 min. Equal amounts of each sample, corresponding to 10 μg of protein, were run on a 4–20% gradient polyacrylamide gel (Bio‐Rad) and analyzed by Coomassie Blue staining 32."}, "ShHTL7 [6]": {"target": "T1, ShHTL7", "test": "Intrinsic tryptophan fluorescence assay", "assay_type": "binding"}, "ShHTL4‐6": {"test_system": "ShHTL4‐6", "set-up": "method as in PMID 26293962", "conditions": "transgenic A. thaliana, read-out: EC50 values for GR24; cited from earlier work"}, "ShHTL7 [7]": {"target": "T1, ShHTL7", "set-up": "method as in PMID 26293962, PMID 26450211", "conditions": "read-out: IC50 for GR24, in vitro YLG assay; recombinant ShHTL7; cited from earlier work"}},
  "note": "Read-outs that look alike come from different tables or passages of the source.",
  "data": [
    {"smiles": "CCCCCCCCCCCCO[C@@H]1O[C@H](CO)[C@@H](O[C@H]2O[C@H](CO)[C@@H](O)[C@H](O)[C@H]2O)[C@H](O)[C@H]1O", "note": "[n‐dodecyl‐β‐D‐maltoside, reference compound]", "values": [
      {"measurement": "binding to ShHTL7 (MST)", "setting": "ShHTL7 [1]; authors' reply in peer review file", "result": "does neither bind"},
      {"measurement": "effect on ShHTL7 aggregation temperature (T agg)", "setting": "ShHTL7 [2]", "result": "did not increase"},
      {"measurement": "effect on ShHTL7 aggregation temperature (T agg)", "setting": "ShHTL7 [2]; listed as nDM", "result": "nor increase Tagg"},
      {"measurement": "effect on GR24-induced Striga germination", "setting": "Striga hermonthica seeds", "result": "did not affect germination"},
      {"measurement": "effect on GR24-induced Striga germination", "setting": "Striga hermonthica seeds; listed as nDM", "result": "does not block germination"}
    ]},
    {"smiles": "CC(C)(C)CC(C)(C)c1ccc(OCCOCCO)cc1", "note": "[4-ter-octylphenol diethoxylate, 4‐ter‐octylphenol diethoxylate]", "values": [
      {"measurement": "IC50", "setting": "ShHTL7 [3]", "result": "7480 ± 2130", "unit": "nM"}
    ]},
    {"smiles": "CC(C)(C)CC(C)(C)c1ccc(OCC(=O)O)cc1", "note": "[PAA, 2‐[4‐(2,4,4‐trimethylpentan‐2‐yl)phenoxy]acetic acid]", "values": [
      {"measurement": "IC50", "setting": "ShHTL7 [3]", "result": 1480, "unit": "nM"},
      {"measurement": "Kd", "setting": "ShHTL7 [1]", "result": "1700 ± 240", "unit": "nM"},
      {"measurement": "effect on ShHTL7 aggregation temperature (T agg)", "setting": "ShHTL7 [2]", "result": "stabilized"},
      {"measurement": "inhibition at 10 µM", "setting": "Striga hermonthica seeds; Striga hermonthica, 48 h, read-out: inhibition of S. hermonthica germination", "result": "≤ 40", "unit": "%"}
    ]},
    {"smiles": "CC1=CC(O/C=C2/C(=O)OC3c4ccccc4CC23)OC1=O", "note": "(stereo not shown) [GR24]", "values": [
      {"measurement": "EC50 of GR24 for ShHTL7 in transgenic Arabidopsis", "setting": "ShHTL7 [4]", "result": "picomolar range"},
      {"measurement": "EC50", "setting": "ShHTL7 [4]; read-out: EC50 (vs. GR24), seed germination in transgenic Arabidopsis lines expressing ShHTL7, ref Toh et al., 2015 (ref. 22)", "result": 0.0175, "unit": "nM"},
      {"measurement": "IC50", "setting": "ShHTL7 [3]", "result": "870 ± 60", "unit": "nM"},
      {"measurement": "Kd", "setting": "ShHTL7 [1]", "result": "920 ± 10", "unit": "nM"},
      {"measurement": "IC50", "setting": "ShHTL6", "result": "~500", "unit": "nM"},
      {"measurement": "protection of ShHTL7 from digestion by proteinase K", "setting": "ShHTL7 [5]", "result": "efficiently protected"},
      {"measurement": "effect on ShHTL7 aggregation temperature (T agg)", "setting": "ShHTL7 [2]", "result": "destabilized"},
      {"measurement": "Kd", "setting": "ShHTL7 [6]", "result": "390 ± 50", "unit": "nM"},
      {"measurement": "EC50", "setting": "ShHTL4‐6", "result": "10 to 300", "unit": "nM"},
      {"measurement": "IC50", "setting": "ShHTL7 [7]", "result": "~500", "unit": "nM"}
    ]},
    {"smiles": "CC(C)(C)CC(C)(C)c1ccc(OCCO)cc1", "note": "[4-ter-octylphenol Monoethoxylate, 4‐ter‐octylphenol monoethoxylate]", "values": [
      {"measurement": "IC50", "setting": "ShHTL7 [3]", "result": "9240 ± 3170", "unit": "nM"}
    ]},
    {"smiles": "CCOC(=O)c1ccccc1-c1c2ccc(=O)cc-2oc2cc(OC3C=C(C)C(=O)O3)ccc12", "note": "(stereo not shown) [YLG, reference compound]", "values": [
      {"measurement": "time for hydrolysis of YLG by ShHTL7", "setting": "ShHTL7 [3]; 3 μM ShHTL7, 1 μM YLG, absence of Triton", "result": "≤ 50", "unit": "min"}
    ]}
  ]
}
